Test results from ChEMBL document CHEMBL4476870, “Arf6 inhibitors and methods of synthesis and use thereof” (2017).
The source made the active and inactive calls. No cut-off for these calls is given here.

Tests used:
[1] = test system: Mus musculus; assay: Inhibition of VEGF-induced retinal permeability in mouse at 500 ng dosed as single intraocular injection followed by Evan blue dye injection 6 hrs post drug dose and measured after 2 hrs; type: functional, organism-based
[2] = organism: Homo sapiens; assay: Antiinvasive activity against human LOX cells assessed as inhibition of 5% FBS-induced cell invasion at 30 uM by Matrigel based cell invasion assay; type: functional
[3] = test system: Mus musculus; assay: Inhibition of choroidal neovascularization in mouse with laser-induced Bruch's membrane disruption at 5 ug dosed on day 0 and 7 and measured on day 14; type: functional, organism-based
[4] = test system: Mus musculus; assay: Inhibition of VEGF-induced retinal permeability in mouse at 5 ug dosed as single intraocular injection followed by Evan blue dye injection 6 hrs post drug dose and measured after 2 hrs; type: functional, organism-based
[5] = test system: Mus musculus; assay: Reduction in oxygen-induced retinopathy in mouse placed in 75% oxygen-environment from day 5 to 12 assessed as reduction in neovascularization at 5 ug dosed via intraocular injection on day 12 and 15 and measured on day 17; type: functional, organism-based
[6] = test system: Influenza A virus; assay: Antiviral activity against Influenza A virus (H1N1) infected in mouse assessed as reduction in virus-infection induced mortality by measuring mouse survival at 20 mg/kg, ip qd for 5 days dosed 4 hrs before virus infection; type: functional, organism-based
[7] = test system: Mus musculus; assay: Reduction in LPS-induced acute lung injury in mouse assessed as reduction in number of cells in BALF at 5 mg/kg dosed 2 hrs post LPS challenge; type: functional, organism-based
[8] = test system: Mus musculus; assay: Reduction in LPS-induced acute lung injury in mouse assessed as reduction in protein concentration at 5 mg/kg dosed 2 hrs post LPS challenge; type: functional, organism-based
[9] = test system: Mus musculus; assay: Anti-inflammatory activity in mouse model of collagen-induced arthritis assessed as reduction in arthritic index at 10 to 60 mg/kg, BID for 14 days and measured up to 15 days post dose; type: functional, organism-based
[10] = test system: Rattus norvegicus; assay: Inhibition of VEGF-induced retinal permeability in rat assessed as reduction in vascular leak at 60 mg/kg, ip dosed 1 hr before VEGF injection on day1 followed by Evan blue dye injection on day2 and measured on day 3; type: functional, organism-based
[11] = test system: Mus musculus; assay: Inhibition of VEGF-induced retinal permeability in mouse at 50 ng dosed as single intraocular injection followed by Evan blue dye injection 6 hrs post drug dose and measured after 2 hrs; type: functional, organism-based
[12] = test system: LN-229; assay: Antiproliferative activity against human LN229 cells assessed as inhibition of cell proliferation at >1 uM by WST8 dye based colorimetric assay; type: functional
[13] = organism: Homo sapiens; assay: Antiproliferative activity against human LOX cells assessed as inhibition of cell proliferation at >1 uM by WST8 dye based colorimetric assay; type: functional
[14] = target: PH and SEC7 domain-containing protein 1 (Mus musculus) (UniProt Q5DTT2); assay: Inhibition of Arf6 activation in mouse NIH/3T3 cells assessed as effect on GTP-bound Arf6 incubated for 4 hrs immobilized GST-tagged Gga3 by based pull down assay; type: cell-based
Chain of PH and SEC7 domain-containing protein 1 (Mus musculus) (Q5DTT2 whole entry, the tested form may be a part): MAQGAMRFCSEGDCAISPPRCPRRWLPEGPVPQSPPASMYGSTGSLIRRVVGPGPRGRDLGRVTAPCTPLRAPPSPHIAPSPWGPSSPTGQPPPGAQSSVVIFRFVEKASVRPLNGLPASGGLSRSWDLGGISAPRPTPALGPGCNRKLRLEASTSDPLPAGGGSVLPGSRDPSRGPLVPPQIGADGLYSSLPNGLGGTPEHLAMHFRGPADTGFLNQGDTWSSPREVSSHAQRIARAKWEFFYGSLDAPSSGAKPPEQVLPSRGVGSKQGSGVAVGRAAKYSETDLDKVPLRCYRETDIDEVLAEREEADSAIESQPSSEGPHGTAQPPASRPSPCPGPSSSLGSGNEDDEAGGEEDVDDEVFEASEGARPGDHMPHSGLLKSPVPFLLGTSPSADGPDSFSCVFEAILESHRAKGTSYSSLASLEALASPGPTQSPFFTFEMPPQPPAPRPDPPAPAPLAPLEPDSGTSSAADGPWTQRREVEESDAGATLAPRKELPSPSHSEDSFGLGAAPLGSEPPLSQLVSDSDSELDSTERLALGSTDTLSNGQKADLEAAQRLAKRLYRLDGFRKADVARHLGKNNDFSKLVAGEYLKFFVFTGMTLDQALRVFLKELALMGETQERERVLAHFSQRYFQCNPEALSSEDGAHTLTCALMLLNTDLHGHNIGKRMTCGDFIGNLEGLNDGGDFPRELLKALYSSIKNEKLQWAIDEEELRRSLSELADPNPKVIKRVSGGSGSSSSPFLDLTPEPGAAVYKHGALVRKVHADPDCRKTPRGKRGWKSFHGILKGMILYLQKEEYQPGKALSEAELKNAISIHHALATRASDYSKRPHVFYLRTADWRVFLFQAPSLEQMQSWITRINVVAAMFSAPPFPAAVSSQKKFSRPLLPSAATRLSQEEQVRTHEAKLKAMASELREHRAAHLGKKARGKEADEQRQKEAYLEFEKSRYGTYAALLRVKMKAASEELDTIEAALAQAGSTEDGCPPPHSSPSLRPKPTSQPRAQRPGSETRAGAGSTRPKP

[15] = Antiinvasive activity against human LOX cells assessed as inhibition of 5% FBS-induced cell invasion at 1 uM by Matrigel based cell invasion assay; type: functional
[16] = test system: Mus musculus; assay: Inhibition of choroidal neovascularization in mouse with laser-induced Bruch's membrane disruption dosed on day 0 and 7 and measured on day 14; type: functional, organism-based
[17] = test system: Mus musculus; assay: Reduction in LPS-induced acute lung injury in mouse assessed as reduction in number of cells in BALF at 60 mg/kg dosed 3 hrs post LPS challenge; type: functional, organism-based
[18] = test system: Mus musculus; assay: Reduction in LPS-induced acute lung injury in mouse assessed as reduction in number of cells in BALF at 60 mg/kg dosed 4 hrs post LPS challenge; type: functional, organism-based
[19] = test system: Mus musculus; assay: Reduction in LPS-induced acute lung injury in mouse assessed as reduction in protein concentration at 60 mg/kg dosed 3 hrs post LPS challenge; type: functional, organism-based
[20] = test system: Mus musculus; assay: Reduction in LPS-induced acute lung injury in mouse assessed as reduction in protein concentration at 60 mg/kg dosed 4 hrs post LPS challenge; type: functional, organism-based

COc1ccc(-c2c(Cc3ccccc3)nn3c(=O)cc(C)[nH]c23)cc1
inhibition [1]: Active

COc1nc(-c2ccc3c(c2)OCO3)n(-c2ccc(NC(=O)CSc3ccccc3)cc2)n1
inhibition [2]: Active

CN(C)c1ccc(/C=C2/C(=O)Nc3ccccc32)cc1
inhibition [3]: Active | inhibition [4]: inactive | inhibition [5]: Active

O=c1cc(Cc2ccccc2)[nH]c2c(-c3ccc(Cl)cc3)c(C(F)(F)F)nn12
inhibition [1]: Active | Activity [6]: Active

C[C@@H]1C[C@H]2[C@@H]3CCC4=CC(=O)C=C[C@]4(C)[C@@]3(F)[C@@H](O)C[C@]2(C)[C@@]1(O)C(=O)CO
inhibition [7]: Active | inhibition [8]: Active

O=c1cc(-c2cccc(Oc3ccccc3)c2)[nH]c2c(-c3ccc(Cl)c(Cl)c3)c(C(F)(F)F)nn12
inhibition [5]: Active | Activity [9]: Dose-dependent effect

O=c1cc(-c2ccc([N+](=O)[O-])cc2)[nH]c2c(-c3ccc(Cl)cc3)c(Cc3ccccc3)nn12
inhibition [10]: Active | inhibition [11]: Active | inhibition [1]: Active | inhibition [12]: Active | inhibition [13]: Active | inhibition [14]: Active | inhibition at 1 µM [15]: 100% | inhibition [16]: Dose-dependent effect | inhibition [5]: Active | inhibition [17]: Active | inhibition [18]: Active | inhibition [19]: Active | inhibition [20]: Active
